Laboratory results taken from patent US8445674B2, “Heterocyclyl compounds” (Hoffmann-La Roche Inc, priority 2009, dated 2013).

Each compound was assayed against T1, human chemokine receptor 2 isoform B (Homo sapiens, UniProt P41597) (assay: Calcium mobilization assay (FLIPR, antagonist activity against MCP-1)). Conditions: Ca mobilisation assay, CHOK1-CCR2B-A5 cells, inhibition of calcium increase induced by 20 nM MCP-1.
T1 construct: host or cells: CHOK1-CCR2B-A5 cells (CHO-K1)
T1 sequence (P41597 1-360 isoform P41597-2): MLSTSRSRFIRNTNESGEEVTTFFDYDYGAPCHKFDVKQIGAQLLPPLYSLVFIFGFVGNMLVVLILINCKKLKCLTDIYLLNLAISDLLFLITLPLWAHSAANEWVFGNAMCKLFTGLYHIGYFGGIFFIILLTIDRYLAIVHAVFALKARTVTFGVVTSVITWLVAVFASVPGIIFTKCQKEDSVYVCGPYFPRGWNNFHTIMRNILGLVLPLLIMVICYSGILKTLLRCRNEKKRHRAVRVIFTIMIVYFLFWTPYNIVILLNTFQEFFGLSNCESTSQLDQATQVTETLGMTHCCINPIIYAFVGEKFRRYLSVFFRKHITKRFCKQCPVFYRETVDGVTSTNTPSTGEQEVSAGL
Type: cell-based
Method: Calcium Mobilization Assay
CHOK1-CCR2B-A5 cells (from Euroscreen) stably overexpressing the human chemokine receptor 2 isoform B were cultured in Nutrient Hams F12 medium supplemented with 5% FBS, 100 U/ml penicillin, 100 μg/ml streptomycin, 400 μg/ml G418 and 5 μg/ml puromycin.
For the assay cells were grown overnight in 384-well black clear flat bottom polystyrene plates (Costar) at 37° C. at 5% CO2. After washing with DMEM, 20 mM Hepes, 2.5 mM probenecid, 0.1% BSA (DMEM assay buffer) cells were loaded with 4 μM Fluo-4 in the same DMEM assay buffer for 2 hours at 30° C. Excess dye was removed and cells were washed with DMEM assay buffer. 384-well compound plates were prepared with DMEM assay buffer/0.5% DMSO with or without various concentrations of test compounds. Usually compounds were tested for agonist and antagonist activity.
Test compounds were added to the assay plate and agonist activity was monitored as fluorescence for 80 seconds with a FLIPR (488 nm excitation; 510-570 nm emission; Molecular Devices). After 20-30 min. of incubation at 30° C., 20 nM MCP-1 (R&D; Roche) was added and fluorescence was monitored again for 80 seconds. Increases in intracellular calcium are reported as maximum fluorescence after agonist exposure minus basal fluorescence before exposure. Antagonist activity is indicated as inhibitor concentration required for 50% inhibition of specific calcium increases.

Compound | IC50
C[C@H]1C(=O)N(C[C@@H](O)CC(=O)N2CCC3(CC3)[C@H](O)C2)CCN1C(=O)Nc1ccc(C(F)(F)F)c(Cl)c1 [Example 42, (S)-4-[(S)-2-Hydroxy-4-((S)-4-hydroxy-6-aza-spiro[2.5]oct-6-yl)-4-oxo-butyl]-2-methyl-3-oxo-piperazine-1-carboxylic acid (3-chloro-4-trifluoromethyl-phenyl)-amide] | 8.2 nM
O=C(/C=C/c1ccc(Cl)c(Cl)c1)N1CCC(=O)N(CCC(=O)N2CCC(O)(c3cccnc3)CC2)CC1 [Example 77, 1-[(E)-3-(3,4-Dichloro-phenyl)-acryloyl]-4-[3-(4′-hydroxy-3′,4′,5′,6′-tetrohydro-2′H-[3,4′]bipyridinyl-1′-yl)-3-oxo-propyl]-[1,4]diazepan-5-one] | 129 nM
C[C@H]1C(=O)N(CCCC(=O)N2CCC3(CCCO3)CC2)CCN1C(=O)Nc1cccc(Cl)c1 [Example 108, (S)-2-Methyl-4-[4-(1-oxa-8-aza-spiro[4.5]dec-8-yl)-4-oxo-butyl]-3-oxo-piperazine-1-carboxylic acid (3-chloro-phenyl)-amide] | 4070 nM
C[C@H]1C(=O)N(CCCC(=O)N2CCC3(CC3)[C@H](O)C2)CCN1C(=O)Nc1ccc(Cl)c(OC(F)(F)F)c1 [Example 35, (S)-4-[4-((S)-4-Hydroxy-6-aza-spiro[2.5]oct-6-yl)-4-oxo-butyl]-2-methyl-3-oxo-piperazine-1-carboxylic acid (4-chloro-3-trifluoromethoxy-phenyl)-amide] | 4.9 nM
C[C@H]1C(=O)N(CC(O)CC(=O)N2CCC3(CC3)[C@H](O)C2)CCN1C(=O)Nc1ccc(OC(F)(F)F)c(Cl)c1 (stereo partly drawn) [Example 44, (S)-4-[(R,S)-2-Hydroxy-4-((S)-4-hydroxy-6-aza-spiro[2.5]oct-6-yl)-4-oxo-butyl]-2-methyl-3-oxo-piperazine-1-carboxylic acid (3-chloro-4-trifluoromethoxy-phenyl)-amide] | 2.7 nM
C[C@H]1C(=O)N(CC(O)CC(=O)N2CCC3(CC3)[C@H](O)C2)CCN1C(=O)Nc1ccc(Cl)c(Cl)c1 (stereo partly drawn) [Example 40, (S)-4-[(R,S)-2-Hydroxy-4-((S)-4-hydroxy-6-aza-spiro[2.5]oct-6-yl)-4-oxo-butyl]-2-methyl-3-oxo-piperazine-1-carboxylic acid (3,4-dichloro-phenyl)-amide] | 7.6 nM
O=C1CCN(C(=O)Nc2ccc(Cl)c(C(F)(F)F)c2)CCN1CCCC(=O)N1CCC2(CC2)[C@H](O)C1 [Example 118, 4-[4-((S)-4-Hydroxy-6-aza-spiro[2.5]oct-6-yl)-4-oxo-butyl]-5-oxo-[1,4] diazepane-1-carboxylic acid (4-chloro-3-trifluoromethyl-phenyl)-amide] | 51.7 nM
CC(C)(C)C1(O)CCN(C(=O)CCN2CCN(C(=O)/C=C/c3ccc(Cl)c(Cl)c3)CCC2=O)CC1 [Example 84, 4-[3-(4-tert-Butyl-4-hydroxy-piperidin-1-yl)-3-oxo-propyl]-1-[(E)-3-(3,4-dichloro-phenyl)-acryloyl]-[1,4]diazepan-5-one] | 47.9 nM
COC(=O)[C@@H](CCC(=O)N1CCC2(CC2)[C@H](O)C1)N1CCN(C(=O)Nc2ccc(C(F)(F)F)c(Cl)c2)[C@@H](C)C1=O [Example 145, (R)-2-[(S)-4-(3-Chloro-4-trifluoromethyl-phenylcarbamoyl)-3-methyl-2-oxo-piperazin-1-yl]-5-((S)-4-hydroxy-6-aza-spiro[2.5]oct-6-yl)-5-oxo-pentanoic acid methyl ester] | 6310 nM
C[C@H]1C(=O)N(CCCC(=O)N2CC[C@H](F)[C@@H](O)C2)CCN1C(=O)Nc1cccc(Cl)c1 (mixture of isomers) [Example 115, (S)-4-[4-((3SR,4SR)-4-Fluoro-3-hydroxy-piperidin-1-yl)-4-oxo-butyl]-2-methyl-3-oxo-piperazine-1-carboxylic acid (3-chloro-phenyl)-amide] | 1360 nM
C[C@@H]1CN(CCCC(=O)N2CCC3(CC3)[C@H](O)C2)C(=O)C=CN1c1ccc(Cl)c(C(F)(F)F)c1 [Example 125, (R)-1-(4-Chloro-3-trifluoromethyl-phenyl)-4-[4-((S)-4-hydroxy-6-aza-spiro[2.5]oct-6-yl)-4-oxo-butyl]-2-methyl-1,2,3,4-tetrahydro-[1,4]diazepin-5-one] | 2750 nM
C[C@H]1C(=O)N(CC(O)CC(=O)N2CCC3(CC3)[C@H](O)C2)CCN1C(=O)Nc1ccc(C(F)(F)F)c(C(F)(F)F)c1 (stereo partly drawn) [Example 47, (S)-4-[(R,S)-2-Hydroxy-4-((S)-4-hydroxy-6-aza-spiro[2.5]oct-6-yl)-4-oxo-butyl]-2-methyl-3-oxo-piperazine-1-carboxylic acid (3,4-bis-trifluoromethyl-phenyl)-amide] | 5.4 nM
COC(=O)[C@H](CCC(=O)N1CCC2(CC2)[C@H](O)C1)N1CC(C)N(c2ccc(C(F)(F)F)c(C(F)(F)F)c2)CCC1=O (stereo partly drawn) [Example 127, (S)-2-[(R,S)-4-(3,4-Bis-trifluoromethyl-phenyl)-3-methyl-7-oxo-[1,4]diazepan-1-yl]-5-((S)-4-hydroxy-6-aza-spiro[2.5]oct-6-yl)-5-oxo-pentanoic acid methyl ester] | 191 nM
COC[C@H](CCC(=O)N1CCC2(CC2)[C@H](O)C1)N1CCN(C(=O)Nc2ccc(C(F)(F)F)c(Cl)c2)[C@@H](C)C1=O [Example 139, (S)-4-[(S)-4-((S)-4-Hydroxy-6-aza-spiro[2.5]oct-6-yl)-1-methoxymethyl-4-oxo-butyl]-2-methyl-3-oxo-piperazine-1-carboxylic acid (3-chloro-4-trifluoromethyl-phenyl)-amide] | 152 nM
COC(=O)C(CC(=O)N(C)C)N1CCN(C(=O)/C=C/c2cccc(Cl)c2)CCC1=O (racemic) [Example 12, rac-(2-{4-[(E)-3-(3-Chloro-phenyl)-acryloyl]-7-oxo-[1,4]diazepan-1-yl}-N,N-dimethyl-succinamic acid methyl ester)] | 1940 nM
O=C(/C=C/c1ccc(Cl)c(Cl)c1)N1CCC(=O)N(CCC(=O)N2CCC3(CCCC3)CC2)CC1 [Example 83, 4-[3-(8-Aza-spiro[4.5]dec-8-yl)-3-oxo-propyl]-1-[(E)-3-(3,4-dichloro-phenyl)-acryloyl]-[1,4]diazepan-5-one] | 307 nM
C[C@H]1C(=O)N(CCC(C)(C)C(=O)N2CCC3(CC3)[C@H](O)C2)CCN1C(=O)Nc1ccc(C(F)(F)F)c(Cl)c1 [Example 50, (S)-4-[4-((S)-4-Hydroxy-6-aza-spiro[2.5]oct-6-yl)-3,3-dimethyl-4-oxo-butyl]-2-methyl-3-oxo-piperazine-1-carboxylic acid (3-chloro-4-trifluoromethyl-phenyl)-amide] | 1140 nM
O=C1CC2(CCN(C(=O)CCN3CCN(C(=O)/C=C/c4ccc(Cl)c(Cl)c4)CCC3=O)CC2)C(=O)N1 [Example 93, 8-(3-{4-[(E)-3-(3,4-Dichloro-phenyl)-acryloyl]-7-oxo-[1,4]diazepan-1-yl}-propionyl)-2,8-diaza-spiro[4.5]decane-1,3-dione] | 1160 nM
O=C(/C=C/c1ccc(Cl)c(Cl)c1)N1CCC(=O)N(CCC(=O)N2CCCCC2CO)CC1 (racemic) [Example 67, (rac)-1-[(E)-3-(3,4-Dichloro-phenyl)-acryloyl]-4-[3-(2-hydroxymethyl-piperidin-1-yl)-3-oxo-propyl]-[1,4]diazepan-5-one] | 1600 nM
CN(C)C(=O)C(CCO)N1CCN(C(=O)/C=C/c2ccc(Cl)c(Cl)c2)CCC1=O (racemic) [Example 3, (rac)-2-{4-[(E)-3-(3,4-Dichloro-phenyl)-acryloyl]-7-oxo-[1,4]diazepan-1-yl}-4-hydroxy-N,N-dimethyl-butyramide] | 563 nM
C[C@@H]1C(=O)N(CCCC(=O)N2CCC3(CC3)[C@H](O)C2)[C@@H](C(N)=O)CN1C(=O)Nc1ccc(Cl)c(Cl)c1 [Example 151, (3R,6R)-4-[4-((S)-4-Hydroxy-6-aza-spiro[2.5]oct-6-yl)-4-oxo-butyl]-6-methyl-5-oxo-piperazine-1,3-dicarboxylic acid 3-amide 1-[(3,4-dichloro-phenyl)-amide]] | 62.1 nM
C[C@@H]1CN(CCC(=O)N2CCC3(CC3)[C@H](O)C2)C(=O)CCN1C(=O)/C=C/c1cccc(Cl)c1 [Example 104, (R)-1-[(E)-3-(3-Chloro-phenyl)-acryloyl]-4-[3-((S)-4-hydroxy-6-aza-spiro[2.5]oct-6-yl)-3-oxo-propyl]-2-methyl-[1,4]diazepan-5-one] | 100 nM
O=C(CC[C@@H](CO)N1CCN(c2ccc(C(F)(F)F)c(Cl)c2)CCC1=O)N1CCC2(CC2)[C@H](O)C1 [Example 124, 1-(3-Chloro-4-trifluoromethyl-phenyl)-4-[(S)-4-((S)-4-hydroxy-6-aza-spiro[2.5]oct-6-yl)-1-hydroxymethyl-4-oxo-butyl]-[1,4]diazepan-5-one] | 8 nM
